Reference: patent publication US20180282415A1, “Combination of a PD-1 Axis Binding Antagonist and an ALK Inhibitor for Treating ALK-Negative Cancer” (Merck Patent GmbH, priority 2015, published 2018)

Columns and labels:
[1] = tested on: CD3/CD28-stimulated effector cells (T cells from healthy donors' PBMCs); test: T cell proliferation assay (3H thymidine incorporation), CD3/CD28-stimulated T cells; type: cell-based, human; details: for Thymidine incorporation(CPM): log[Agonist]
From the text: (§1) Briefly, human cells were isolated from healthy donors' PBMCs by using EasySep™ Human T Cell Enrichment Kit (Stemcell Technologies) according to manufacturer's instruction. […] Culture supernatants were collected on Day 2 or 3 for cytokine analysis. Plates were then harvested on DNA specific filter papers (Perkin Elmer) using Harvester96 (Tomtec Life Sciences). The radiolabeled filters were covered with beta scintillation liquid (Perkin Elmer) and read in Microbeta® counter plates (Perkin Elmer). ^3H Thymidine was pulsed on Day 2 for T cell proliferation assay.

[2] = tested on: activated T cells; test: T cell viability, Cell-Titer Glo Luminescent Cell Viability Assay; type: cell-based, human; details: for Luciferase RLU (T cell viability): log[Agonist]
Experimental: as §1, with “instruction. […] Cells were cultured in RPMI 1640 medium supplemented with 10% FCS and 100 I.U./mL penicillin/streptomycin in humidified incubator at 37° C. with 5% CO2.” for “instruction.”, “assay. The impact by sunitinib and axitinib on T cell proliferation and viability were repeated as previously published (FIGS. 1A and 1B).” for “assay.”
Cell viability was measured by Cell-Titer Glo Luminescent Cell Viability Assay® (Promega, Madison). […] Table 4 below provides the Luciferase RLU values reflecting T cell viability for each of the respective inhibitors.

[3] = tested on: CT26 colon carcinoma; test: In vivo tumor efficacy, CT26 model, crizotinib or alectinib with anti-PD-L1 (Example 3); design: species or system Balb/c mice
From the text: (§2) CT26 colon carcinoma cell line has published mutanome and transcriptome data, with no known ALK fusion events or oncogenic mutations. Castle et al, BMC Genomics, 15:190 (13 Mar. 2014); Castle et al, CAN 11:3722 (11 Jan. 2012).
(§3) Six- to eight-week old female Balb/c or C57BL/6 mice were purchased from The Jackson Laboratories.
CT26 cell lines, anti-PD-L1 antibody and Rat IgG isotypes (IgG2a and IgG2b) were purchased from BioXCell (clones 2A3 and LTF2, respectively) and prepared as described in Example 2 above. […]

[4] = tested on: MC38 colon carcinoma; test: In vivo tumor efficacy, MC38 model, crizotinib with anti-PD-L1 (Example 3); design: species or system C57BL/6 mice; details: crizotinib 40 mg/kg, anti-mPDL1 10 mg/kg
Experimental: as §2, §3
MC38 colon carcinoma cell line was kindly provided by Dr. Antoni Ribas at UCLA, California. Cells were cultured in DMEM medium supplemented with 10% fetal bovine serum, and 100 I.U./mL penicillin/streptomycin at 37° C. in an atmosphere of 5% CO2 in air, and IMPACT-tested for pathogens at Research Animal Diagnostic Laboratory (RADIL) (Columbia, Mo.). Pathogen-free cells growing in an exponential growth phase were harvested and used for tumor inoculation.
For the MC38 study, C57BL/6 mice were inoculated subcutaneously in the right lower flank with 0.2×10^6 MC38 colon carcinoma cells. When tumor bearing mice achieved a mean tumor volume of 50 to 150 mm^3, mice were randomly assigned to 1 of 4 treatment groups, n=10.

[5] = tested on: MC38 colon carcinoma; test: In vivo tumor efficacy, MC38 model, crizotinib with avelumab (Example 5); design: species or system C57BL/6 mice; details: for Tumor Volume (Mean ± SEM): avelumab 20 mg/kg i.p., crizotinib 40 mg/kg orally QD
Experimental: Avelumab is a fully human IgG1 antibody that recognizes both human and mouse PD-L1. […] Six- to eight-week old female C57BL/6 mice were purchased from The Jackson Laboratories (Farmington, Conn.). Mice were maintained and all animal experiments were conducted according to the protocols approved by the Institutional Animal Care and Use Committee of Rinat, South San Francisco and Worldwide Research and Development (WRD), La Jolla, Pfizer Inc. MC38 colon carcinoma cell line was kindly provided by Dr. Antoni Ribas at UCLA, California. Cells were cultured in DMEM medium supplemented with 10% fetal bovine serum, and 100 I.U./mL penicillin/streptomycin at 37° C. in an atmosphere of 5% CO2 in air, and IMPACT-tested for pathogens at Research Animal Diagnostic Laboratory (RADIL) (Columbia, Mo.). Pathogen-free cells growing in an exponential growth phase were harvested and used for tumor inoculation. […] Human IgG1 was prepared in-house (Lot No. NB123249p192CA110124). […] Body weight was recorded weekly. […] Mice were monitored for tumor growth and body weight changes.

C[C@@H](Oc1cc(-c2cnn(C3CCNCC3)c2)cnc1N)c1c(Cl)ccc(F)c1Cl [crizotinib, 3-[(1R)-1-(2,6-dichloro-3-fluorophenyl)ethoxy]-5-(1-piperidin-4-ylpyrazol-4-yl)pyridin-2-amine]
Effect on T cell proliferation ([1]; activated T cells, FIG. 1A): did not have adverse effects on T cell proliferation | Thymidine incorporation(CPM) ([1]; μM: 0): 432360.3 ± 29488.63 CPM | Thymidine incorporation(CPM) ([1]; μM: 1): 436099.3 ± 34171.33 CPM | Thymidine incorporation(CPM) ([1]; μM: 2): 270672.7 ± 18298.53 CPM | Thymidine incorporation(CPM) ([1]; μM: −1): 438641 ± 47103.88 CPM | Thymidine incorporation(CPM) ([1]; μM: −2): 442995.3 ± 42508.08 CPM | Thymidine incorporation(CPM) ([1]; μM: −3): 421221.3 ± 24333.6 CPM | Effect on T cell viability ([2]; FIG. 1B): did not result in dose-dependent decreases in T cell viability | Luciferase RLU (T cell viability) ([2]; μM: 0): 94.22 ± 1.814 RLU | Luciferase RLU (T cell viability) ([2]; μM: 1): 91.72 ± 2.354 RLU | Luciferase RLU (T cell viability) ([2]; μM: 2): 64.24 ± 3.748 RLU | Luciferase RLU (T cell viability) ([2]; μM: 3): 1.474 ± 0.1693 RLU | Luciferase RLU (T cell viability) ([2]; μM: −1): 95.6927 ± 1.827 RLU | Luciferase RLU (T cell viability) ([2]; μM: −2): 93.68 ± 1.564 RLU | Luciferase RLU (T cell viability) ([2]; μM: −3): 89.08 ± 2.843 RLU | Tumor Volume (Mean ± SEM) ([3]; Day 7, crizotinib 5 mg/kg (alone or with anti-mPDL1)): 90.3 ± 8.1 mm^3 | Tumor Volume (Mean ± SEM) ([3]; Day 7, crizotinib 20 mg/kg (alone or with anti-mPDL1)): 90.3 ± 8.0 mm^3 | Tumor Volume (Mean ± SEM) ([3]; Day 7, crizotinib 40 mg/kg (alone or with anti-mPDL1)): 94.4 ± 7.9 mm^3 | Tumor Volume (Mean ± SEM) ([3]; Day 10, crizotinib 5 mg/kg (alone or with anti-mPDL1)): 140.9 ± 18.0 mm^3 | Tumor Volume (Mean ± SEM) ([3]; Day 10, crizotinib 20 mg/kg (alone or with anti-mPDL1)): 156.1 ± 21.9 mm^3 | Tumor Volume (Mean ± SEM) ([3]; Day 10, crizotinib 40 mg/kg (alone or with anti-mPDL1)): 127.0 ± 9.8 mm^3 | Tumor Volume (Mean ± SEM) ([3]; Day 14, crizotinib 5 mg/kg (alone or with anti-mPDL1)): 246.6 ± 54.7 mm^3 | Tumor Volume (Mean ± SEM) ([3]; Day 14, crizotinib 20 mg/kg (alone or with anti-mPDL1)): 234.2 ± 49.0 mm^3 | Tumor Volume (Mean ± SEM) ([3]; Day 14, crizotinib 40 mg/kg (alone or with anti-mPDL1)): 218.5 ± 31.5 mm^3 | Tumor Volume (Mean ± SEM) ([3]; Day 18, crizotinib 5 mg/kg (alone or with anti-mPDL1)): 407.1 ± 122.2 mm^3 | Tumor Volume (Mean ± SEM) ([3]; Day 18, crizotinib 20 mg/kg (alone or with anti-mPDL1)): 299.3 ± 67.1 mm^3 | Tumor Volume (Mean ± SEM) ([3]; Day 18, crizotinib 40 mg/kg (alone or with anti-mPDL1)): 319.6 ± 47.7 mm^3 | Tumor Volume (Mean ± SEM) ([3]; Day 22, crizotinib 5 mg/kg (alone or with anti-mPDL1)): 749.8 ± 220.0 mm^3 | Tumor Volume (Mean ± SEM) ([3]; Day 22, crizotinib 20 mg/kg (alone or with anti-mPDL1)): 631.3 ± 158.5 mm^3 | Tumor Volume (Mean ± SEM) ([3]; Day 22, crizotinib 40 mg/kg (alone or with anti-mPDL1)): 685.3 ± 101.1 mm^3 | Tumor Volume (Mean ± SEM) ([3]; Day 25, crizotinib 5 mg/kg (alone or with anti-mPDL1)): 1161.1 ± 415.4 mm^3 | Tumor Volume (Mean ± SEM) ([3]; Day 25, crizotinib 20 mg/kg (alone or with anti-mPDL1)): 934.9 ± 223.8 mm^3 | Tumor Volume (Mean ± SEM) ([3]; Day 25, crizotinib 40 mg/kg (alone or with anti-mPDL1)): 1074.5 ± 136.2 mm^3 | Anti-tumor effect in CT26 model ([3]; compared to isotype control or single agents): no anti-tumor effects | Tumor Volume (Mean ± SEM) ([4]; Day 7): 78.1 ± 6.0 mm^3 | Tumor Volume (Mean ± SEM) ([4]; Day 14): 169.7 ± 16.3 mm^3 | Tumor Volume (Mean ± SEM) ([4]; Day 19): 291.7 ± 26.2 mm^3 | Tumor Volume (Mean ± SEM) ([4]; Day 24): 580.5 ± 67.0 mm^3 | Tumor Volume (Mean ± SEM) ([4]; Day 27): 836.5 ± 137.8 mm^3 | Tumor Volume (Mean ± SEM) ([5]; Day 7): 78.1 ± 6.0 mm^3 | Tumor Volume (Mean ± SEM) ([5]; Day 14): 169.7 ± 16.3 mm^3 | Tumor Volume (Mean ± SEM) ([5]; Day 19): 291.7 ± 26.2 mm^3 | Tumor Volume (Mean ± SEM) ([5]; Day 24): 580.5 ± 67.0 mm^3 | Tumor Volume (Mean ± SEM) ([5]; Day 27): 836.5 ± 137.8 mm^3 | TGI ([5]; compared with the isotype control antibody treated group, avelumab 20 mg/kg, crizotinib 40 mg/kg): 48.5%
